Experimental data reported in ChEMBL document CHEMBL4257449, “New N-(2-phenyl-4-oxo-1,3-thiazolidin-3-yl)-1,2-benzothiazole-3-carboxamides and acetamides as antimicrobial agents” (2017).
In brackets after ≈: the same amount, converted by molar mass.

Tests used:
Pseudomonas aeruginosa [1] = experiment: Antibacterial activity against Pseudomonas aeruginosa ATCC 27853 after 24 hrs by microdilution method; type: functional; settings: ATCC 27853, 24 h
Bacillus cereus [2] = experiment: Bactericidal activity against Bacillus cereus incubated for 24 hrs followed by serial sub-cultivation and measured after 24 hrs by microdilution method; type: functional
Listeria monocytogenes [3] = experiment: Antibacterial activity against Listeria monocytogenes NCTC 7973 after 24 hrs by microdilution method; type: functional; settings: NCTC 7973, 24 h
Aspergillus versicolor [4] = experiment: Fungicidal activity against Aspergillus versicolor ATCC 11730 incubated for 72 hrs followed by serial sub-cultivation for 72 hrs and measured after 72 hrs by serial dilution method; type: functional
Salmonella typhimurium [5] = experiment: Bactericidal activity against Salmonella typhimurium ATCC 13311 incubated for 24 hrs followed by serial sub-cultivation and measured after 24 hrs by microdilution method; type: functional, Salmonella enterica subsp. enterica serovar Typhimurium
Talaromyces funiculosus [6] = experiment: Antifungal activity against Penicillium funiculosum ATCC 36839 after 72 hrs by serial dilution method; type: functional; settings: ATCC 36839, 72 h
Salmonella typhimurium [7] = experiment: Antibacterial activity against Salmonella typhimurium ATCC 13311 after 24 hrs by microdilution method; type: functional, Salmonella enterica subsp. enterica serovar Typhimurium; settings: Salmonella enterica, ATCC 13311, 24 h
Staphylococcus aureus [8] = experiment: Antibacterial activity against Staphylococcus aureus ATCC 6538 after 24 hrs by microdilution method; type: functional; settings: ATCC 6538, 24 h
Aspergillus niger [9] = experiment: Antifungal activity against Aspergillus niger ATCC 6275 after 72 hrs by serial dilution method; type: functional; settings: ATCC 6275, 72 h
Pseudomonas aeruginosa [10] = experiment: Bactericidal activity against Pseudomonas aeruginosa ATCC 27853 incubated for 24 hrs followed by serial sub-cultivation and measured after 24 hrs by microdilution method; type: functional
Escherichia coli [11] = experiment: Antibacterial activity against Escherichia coli ATCC 35210 after 24 hrs by microdilution method; type: functional; settings: ATCC 35210, 24 h
Listeria monocytogenes [12] = experiment: Bactericidal activity against Listeria monocytogenes NCTC 7973 incubated for 24 hrs followed by serial sub-cultivation and measured after 24 hrs by microdilution method; type: functional
Enterobacter cloacae [13] = experiment: Bactericidal activity against Enterobacter cloacae incubated for 24 hrs followed by serial sub-cultivation and measured after 24 hrs by microdilution method; type: functional
Talaromyces funiculosus [14] = experiment: Fungicidal activity against Penicillium funiculosum ATCC 36839 incubated for 72 hrs followed by serial sub-cultivation for 72 hrs and measured after 72 hrs by serial dilution method; type: functional
Penicillium ochrochloron [15] = experiment: Fungicidal activity against Penicillium ochrochloron ATCC 9112 incubated for 72 hrs followed by serial sub-cultivation for 72 hrs and measured after 72 hrs by serial dilution method; type: functional
Staphylococcus aureus [16] = experiment: Bactericidal activity against Staphylococcus aureus ATCC 6538 incubated for 24 hrs followed by serial sub-cultivation and measured after 24 hrs by microdilution method; type: functional
Micrococcus flavus [17] = experiment: Antibacterial activity against Micrococcus flavus ATCC 10240 after 24 hrs by microdilution method; type: functional; settings: ATCC 10240, 24 h
Trichoderma viride [18] = experiment: Antifungal activity against Trichoderma viride IAM 5061 after 72 hrs by serial dilution method; type: functional; settings: IAM 5061, 72 h
Aspergillus ochraceus [19] = experiment: Antifungal activity against Aspergillus ochraceus ATCC 12066 after 72 hrs by serial dilution method; type: functional; settings: ATCC 12066, 72 h
Escherichia coli [20] = experiment: Bactericidal activity against Escherichia coli ATCC 35210 incubated for 24 hrs followed by serial sub-cultivation and measured after 24 hrs by microdilution method; type: functional
Aspergillus fumigatus [21] = experiment: Antifungal activity against Aspergillus fumigatus after 72 hrs by serial dilution method; type: functional
Aspergillus niger [22] = experiment: Fungicidal activity against Aspergillus niger ATCC 6275 incubated for 72 hrs followed by serial sub-cultivation for 72 hrs and measured after 72 hrs by serial dilution method; type: functional
Trichoderma viride [23] = experiment: Fungicidal activity against Trichoderma viride IAM 5061 incubated for 72 hrs followed by serial sub-cultivation for 72 hrs and measured after 72 hrs by serial dilution method; type: functional
Penicillium ochrochloron [24] = experiment: Antifungal activity against Penicillium ochrochloron ATCC 9112 after 72 hrs by serial dilution method; type: functional; settings: ATCC 9112, 72 h
Enterobacter cloacae [25] = experiment: Antibacterial activity against Enterobacter cloacae after 24 hrs by microdilution method; type: functional
Candida albicans [26] = experiment: Fungicidal activity against Candida albicans incubated for 72 hrs followed by serial sub-cultivation for 72 hrs and measured after 72 hrs by serial dilution method; type: functional
Candida albicans [27] = experiment: Antifungal activity against Candida albicans after 72 hrs by serial dilution method; type: functional
Aspergillus versicolor [28] = experiment: Antifungal activity against Aspergillus versicolor ATCC 11730 after 72 hrs by serial dilution method; type: functional; settings: ATCC 11730, 72 h
Aspergillus ochraceus [29] = experiment: Fungicidal activity against Aspergillus ochraceus ATCC 12066 incubated for 72 hrs followed by serial sub-cultivation for 72 hrs and measured after 72 hrs by serial dilution method; type: functional
Bacillus cereus [30] = experiment: Antibacterial activity against Bacillus cereus after 24 hrs by microdilution method; type: functional
Micrococcus flavus [31] = experiment: Bactericidal activity against Micrococcus flavus ATCC 10240 incubated for 24 hrs followed by serial sub-cultivation and measured after 24 hrs by microdilution method; type: functional
Aspergillus fumigatus [32] = experiment: Fungicidal activity against Aspergillus fumigatus incubated for 72 hrs followed by serial sub-cultivation for 72 hrs and measured after 72 hrs by serial dilution method; type: functional

SMILES	MIC (Pseudomonas aeruginosa [1]) [µM]	MBC99.5 (Bacillus cereus [2]) [×10⁻² umol/ml]	MIC (Listeria monocytogenes [3]) [µM]	MFC99.5 (Aspergillus versicolor [4]) [×10⁻² umol/ml]	MBC99.5 (Salmonella typhimurium [5]) [×10⁻² umol/ml]	MIC (Talaromyces funiculosus [6]) [µM]	MIC (Salmonella typhimurium [7]) [µM]	MIC (Staphylococcus aureus [8]) [µM]	MIC (Aspergillus niger [9]) [µM]	MBC99.5 (Pseudomonas aeruginosa [10]) [×10⁻² umol/ml]	MIC (Escherichia coli [11]) [µM]	MBC99.5 (Listeria monocytogenes [12]) [×10⁻² umol/ml]	MBC99.5 (Enterobacter cloacae [13]) [×10⁻² umol/ml]	MFC99.5 (Talaromyces funiculosus [14]) [×10⁻² umol/ml]	MFC99.5 (Penicillium ochrochloron [15]) [×10⁻² umol/ml]	MBC99.5 (Staphylococcus aureus [16]) [×10⁻² umol/ml]	MIC (Micrococcus flavus [17]) [µM]	MIC (Trichoderma viride [18]) [µM]	MIC (Aspergillus ochraceus [19]) [µM]	MBC99.5 (Escherichia coli [20]) [×10⁻² umol/ml]	also measured
O=C(Cc1nsc2ccccc12)NN1C(=O)CSC1c1c(F)cccc1Cl (stereo unspecified)	270 (≈ 114 µg/mL)	36.7	367 (≈ 155 µg/mL)	9.8	36.7	49 (≈ 20.7 µg/mL)	196 (≈ 82.7 µg/mL)	147 (≈ 62 µg/mL)	196 (≈ 82.7 µg/mL)	36.7	270 (≈ 114 µg/mL)	73.4	19.6	9.8	9.8	19.6	270 (≈ 114 µg/mL)	38 (≈ 16 µg/mL)	98 (≈ 41.3 µg/mL)	36.7	MIC (Aspergillus fumigatus [21]): 98 µM (≈ 41.3 µg/mL); MFC99.5 (Aspergillus niger [22]): 36.7 ×10⁻² umol/ml; MFC99.5 (Trichoderma viride [23]): 4.9 ×10⁻² umol/ml; MIC (Penicillium ochrochloron [24]): 49 µM (≈ 20.7 µg/mL); MIC (Enterobacter cloacae [25]): 147 µM (≈ 62 µg/mL); MFC99.5 (Candida albicans [26]): 9.8 ×10⁻² umol/ml; MIC (Candida albicans [27]): 49 µM (≈ 20.7 µg/mL); MIC (Aspergillus versicolor [28]): 49 µM (≈ 20.7 µg/mL); MFC99.5 (Aspergillus ochraceus [29]): 19.6 ×10⁻² umol/ml; MIC (Bacillus cereus [30]): 147 µM (≈ 62 µg/mL); MBC99.5 (Micrococcus flavus [31]): 36.7 ×10⁻² umol/ml; MFC99.5 (Aspergillus fumigatus [32]): 19.6 ×10⁻² umol/ml
O=C(Cc1nsc2ccccc12)NN1C(=O)CSC1c1c(F)cccc1F (stereo unspecified)	272 (≈ 110 µg/mL)	37	543 (≈ 220 µg/mL)	9.9	37	74 (≈ 30 µg/mL)	198 (≈ 80.3 µg/mL)	198 (≈ 80.3 µg/mL)	148 (≈ 60 µg/mL)	37	272 (≈ 110 µg/mL)	74	37	9.9	19.8	37	272 (≈ 110 µg/mL)	74 (≈ 30 µg/mL)	74 (≈ 30 µg/mL)	37	MIC (Aspergillus fumigatus [21]): 296 µM (≈ 120 µg/mL); MFC99.5 (Aspergillus niger [22]): 19.8 ×10⁻² umol/ml; MFC99.5 (Trichoderma viride [23]): 9.9 ×10⁻² umol/ml; MIC (Penicillium ochrochloron [24]): 148 µM (≈ 60 µg/mL); MIC (Enterobacter cloacae [25]): 198 µM (≈ 80.3 µg/mL); MFC99.5 (Candida albicans [26]): 19.8 ×10⁻² umol/ml; MIC (Candida albicans [27]): 99 µM (≈ 40.1 µg/mL); MIC (Aspergillus versicolor [28]): 74 µM (≈ 30 µg/mL); MFC99.5 (Aspergillus ochraceus [29]): 9.9 ×10⁻² umol/ml; MIC (Bacillus cereus [30]): 198 µM (≈ 80.3 µg/mL); MBC99.5 (Micrococcus flavus [31]): 37 ×10⁻² umol/ml; MFC99.5 (Aspergillus fumigatus [32]): 37 ×10⁻² umol/ml
O=C(Cc1nsc2ccccc12)NN1C(=O)CSC1c1ccc(Cl)cc1 (stereo unspecified)	372 (≈ 150 µg/mL)	19.8	744 (≈ 301 µg/mL)	19.8	74.4	144 (≈ 58.2 µg/mL)	372 (≈ 150 µg/mL)	198 (≈ 80 µg/mL)	198 (≈ 80 µg/mL)	74.4	273 (≈ 110 µg/mL)	111.6	74.4	19.8	19.8	37.2	273 (≈ 110 µg/mL)	100 (≈ 40.4 µg/mL)	100 (≈ 40.4 µg/mL)	37.2	MIC (Aspergillus fumigatus [21]): 372 µM (≈ 150 µg/mL); MFC99.5 (Aspergillus niger [22]): 37.2 ×10⁻² umol/ml; MFC99.5 (Trichoderma viride [23]): 19.8 ×10⁻² umol/ml; MIC (Penicillium ochrochloron [24]): 100 µM (≈ 40.4 µg/mL); MIC (Enterobacter cloacae [25]): 570 µM (≈ 230 µg/mL); MFC99.5 (Candida albicans [26]): 37.2 ×10⁻² umol/ml; MIC (Candida albicans [27]): 198 µM (≈ 80 µg/mL); MIC (Aspergillus versicolor [28]): 100 µM (≈ 40.4 µg/mL); MFC99.5 (Aspergillus ochraceus [29]): 19.8 ×10⁻² umol/ml; MIC (Bacillus cereus [30]): 100 µM (≈ 40.4 µg/mL); MBC99.5 (Micrococcus flavus [31]): 37.2 ×10⁻² umol/ml; MFC99.5 (Aspergillus fumigatus [32]): 74.4 ×10⁻² umol/ml
